# Reference: patent publication US6875451B2, “Compositions and methods for the treatment of primary and metastatic neoplastic diseases using arsenic compounds” (PolaRx Biopharmaceuticals Inc., priority 1997, dated 2005)
# Experiments:
# Format in all cases: cell-based
# MDA-N = experiment: SRB growth assay, 6 days exposure, breast cancer
# Protocol: (§1) Arsenic trioxide (1 mg/ml, 10 mg/ampoule, manufactured by Taylor Pharmaceuticals, Decatur, Ill.) was tested at five concentrations each at 10-fold dilutions, i.e., 10^−5, 10^−6, 10^−7, 10^−8 and 10^−9 μg/ml.
# (§2) The in vitro tests were performed by incubating the test cells in the presence of the indicated concentration of arsenic trioxide under standard culture conditions for a designated period of time, which is followed by a sulforhodamine B (SRB) protein assay to estimate cell viability or growth. The cell lines are organized into subpanels according to the origin of the cell lines, e.g., leukemia, breast cancer, etc. A description of the cell lines and method of testing is described in Monk et al. (1997, Anticancer Drug Des. 12:533-41) and Weinstein et al., (1997, Science 275:343-9), which are incorporated herein in their entirety.
# (§3) The measurement of an effect is expressed in Percentage Growth (PG). The measured effect of the compound on a cell line is calculated according to one or the other of the following two expressions: If (Mean ODtest−Mean ODzero)≧0. then PG=100×(Mean ODtest−Mean ODzero)/(Mean ODctrl−Mean ODzero) If (Mean ODtest−Mean ODzero)<0. then PG=100×(Mean ODtest−Mean ODzero)/(Mean ODzero where: • Mean ODzero=the average of optical density measurements of SRB-derived color just before exposure of cells to the test compounds; • Mean ODtest=the average of optical density measurements of SRB-derived color after exposure of cells to the test compound for a designated period of time; and • Mean ODctrl=the average of optical density measurements of SRB-derived color after with no exposure of cells to the test compound for a designated period of time
# (§4) The first two columns describe the subpanel (e.g., leukemia) and cell line (e.g., CCRF-CEM) involved. The next two columns list the Mean ODzero and Mean ODctrl; the next five columns list the Mean ODtest for each of five different concentrations. Each concentration is expressed as the log10 (molar or μg/ml). The next five columns list the calculated PGs for each concentration. The response parameters GI50, TGI and LC50 are interpolated values representing the concentrations at which the PG is +50, 0, and −50, respectively. Sometimes these response parameters cannot be obtained by interpolation. If, for instance, all of the PGs in a given row exceed +50, then none of the three parameters can be obtained by interpolation. In such a case, the value given for each response parameter is the highest concentration tested and is preceded by a “>” sign. This practice is extended similarly to the other possible situations where a response parameter cannot be obtained by interpolation.
# (§5) In the first set, the cells from 56 different cancer cell lines were exposed to five concentrations of arsenic trioxide continuously for two days prior to performing the SRB assay. In the second set, the cells from 50 different cell lines (a subset of the first 56 cell lines, plus the renal cancer cell line 786-0) were exposed continuously for six days prior to the SRB assay.
# BR-549 = experiment: SRB growth assay, 6 days exposure, breast cancer; settings: BT-549, 6 days
# Protocol: as §1, §2, §3, §4, §5
# HS 578T = experiment: SRB growth assay, 6 days exposure, breast cancer
# Protocol: as §1, §2, §3, §4, §5
# NCI/ADR-RIS = experiment: SRB growth assay, 6 days exposure, breast cancer
# Protocol: as §1, §2, §3, §4, §5
# MCF7 = experiment: SRB growth assay, 6 days exposure, breast cancer; settings: MCF7, 6 days
# Protocol: as §1, §2, §3, §4, §5
# MDA-MB-435 = experiment: SRB growth assay, 6 days exposure, breast cancer; settings: MDA-MB-435, 6 days
# Protocol: as §1, §2, §3, §4, §5
# [1] = test system: 56 different cancer cell lines; experiment: NCI cancer cell line panel, SRB assay, first set, 2 days exposure (whole panel, mean graph)
# Protocol: as §1, §2, §3
# The first two columns describe the subpanel (e.g., leukemia) and cell line (e.g., CCRF-CEM) involved. The next two columns list the Mean ODzero and Mean ODctrl; the next five columns list the Mean ODtest for each of five different concentrations. Each concentration is expressed as the log10 (molar or μg/ml). The next five columns list the calculated PGs for each concentration. […]
# [2] = read-out: LC50 (the source's name)
substance,measurement,setting,value
arsenic trioxide,TGI,MDA-N,9.55E−06
same,Mean Optical Densities,MDA-N; Log 10 Concentration −4.9,0.026
same,Percent Growth,MDA-N; Log 10 Concentration −4.9,−9%
same,Mean Optical Densities,MDA-N; Log 10 Concentration −5.9,1.738
same,Percent Growth,MDA-N; Log 10 Concentration −5.9,65%
same,Mean Optical Densities,MDA-N; Log 10 Concentration −6.9,2.606
same,Percent Growth,MDA-N; Log 10 Concentration −6.9,98%
same,Mean Optical Densities,MDA-N; Log 10 Concentration −7.9,2.616
same,Percent Growth,MDA-N; Log 10 Concentration −7.9,99%
same,Mean Optical Densities,MDA-N; Log 10 Concentration −8.9,2.468
same,Percent Growth,MDA-N; Log 10 Concentration −8.9,93%
same,CC50,MDA-N; [2],> 12.6 µM
same,GI50,BR-549,2.22 µM
same,TGI,BR-549,4.24E−06
same,Mean Optical Densities,BR-549; Log 10 Concentration −4.9,0.018
same,Percent Growth,BR-549; Log 10 Concentration −4.9,−84%
same,Mean Optical Densities,BR-549; Log 10 Concentration −5.9,1.697
same,Percent Growth,BR-549; Log 10 Concentration −5.9,94%
same,Mean Optical Densities,BR-549; Log 10 Concentration −6.9,1.963
same,Percent Growth,BR-549; Log 10 Concentration −6.9,110%
same,Mean Optical Densities,BR-549; Log 10 Concentration −7.9,1.940
same,Percent Growth,BR-549; Log 10 Concentration −7.9,108%
same,Mean Optical Densities,BR-549; Log 10 Concentration −8.9,1.876
same,Percent Growth,BR-549; Log 10 Concentration −8.9,105%
same,CC50,BR-549; [2],8.08 µM
same,TGI,HS 578T,4.12E−06
same,Mean Optical Densities,HS 578T; Log 10 Concentration −4.9,0.010
same,Percent Growth,HS 578T; Log 10 Concentration −4.9,−91%
same,Mean Optical Densities,HS 578T; Log 10 Concentration −5.9,0.706
same,Percent Growth,HS 578T; Log 10 Concentration −5.9,96%
same,Mean Optical Densities,HS 578T; Log 10 Concentration −6.9,0.890
same,Percent Growth,HS 578T; Log 10 Concentration −6.9,126%
same,Mean Optical Densities,HS 578T; Log 10 Concentration −7.9,0.587
same,Percent Growth,HS 578T; Log 10 Concentration −7.9,77%
same,Mean Optical Densities,HS 578T; Log 10 Concentration −8.9,0.777
same,Percent Growth,HS 578T; Log 10 Concentration −8.9,108%
same,TGI,NCI/ADR-RIS,>1.26E−05
same,Mean Optical Densities,NCI/ADR-RIS; Log 10 Concentration −4.9,0.072
same,Percent Growth,NCI/ADR-RIS; Log 10 Concentration −4.9,1%
same,Mean Optical Densities,NCI/ADR-RIS; Log 10 Concentration −5.9,1.319
same,Percent Growth,NCI/ADR-RIS; Log 10 Concentration −5.9,56%
same,Mean Optical Densities,NCI/ADR-RIS; Log 10 Concentration −6.9,1.951
same,Percent Growth,NCI/ADR-RIS; Log 10 Concentration −6.9,84%
same,Mean Optical Densities,NCI/ADR-RIS; Log 10 Concentration −7.9,2.253
same,Percent Growth,NCI/ADR-RIS; Log 10 Concentration −7.9,98%
same,Mean Optical Densities,NCI/ADR-RIS; Log 10 Concentration −8.9,2.075
same,Percent Growth,NCI/ADR-RIS; Log 10 Concentration −8.9,90%
same,CC50,NCI/ADR-RIS; [2],> 12.6 µM
same,TGI,MCF7,3.66E−06
same,Mean Optical Densities,MCF7; Log 10 Concentration −4.9,0.008
same,Percent Growth,MCF7; Log 10 Concentration −4.9,−73%
same,Mean Optical Densities,MCF7; Log 10 Concentration −5.9,1.683
same,Percent Growth,MCF7; Log 10 Concentration −5.9,63%
same,Mean Optical Densities,MCF7; Log 10 Concentration −6.9,2.603
same,Percent Growth,MCF7; Log 10 Concentration −6.9,98%
same,Mean Optical Densities,MCF7; Log 10 Concentration −7.9,2.611
same,Percent Growth,MCF7; Log 10 Concentration −7.9,99%
same,Mean Optical Densities,MCF7; Log 10 Concentration −8.9,2.647
same,Percent Growth,MCF7; Log 10 Concentration −8.9,100%
same,TGI,MDA-MB-435,3.10E−06
same,Mean Optical Densities,MDA-MB-435; Log 10 Concentration −4.9,0.021
same,Percent Growth,MDA-MB-435; Log 10 Concentration −4.9,−62%
same,Mean Optical Densities,MDA-MB-435; Log 10 Concentration −5.9,0.631
same,Percent Growth,MDA-MB-435; Log 10 Concentration −5.9,40%
same,Mean Optical Densities,MDA-MB-435; Log 10 Concentration −6.9,0.865
same,Percent Growth,MDA-MB-435; Log 10 Concentration −6.9,56%
same,Mean Optical Densities,MDA-MB-435; Log 10 Concentration −7.9,1.470
same,Percent Growth,MDA-MB-435; Log 10 Concentration −7.9,98%
same,Mean Optical Densities,MDA-MB-435; Log 10 Concentration −8.9,1.276
same,Percent Growth,MDA-MB-435; Log 10 Concentration −8.9,85%
same,reducing cell growth,"[1]; first set of tests, 2 days exposure, all cell lines tested",effective in reducing cell growth against almost all the cell lines tested
same,reduction of growth,"[1]; leukemic, melanoma and ovarian cancer cell lines, 2 days exposure",more than 50%
same,"sensitivity relative to all the cell lines tested (mean graph, FIG. 2)","[1]; most leukemic and melanoma cell lines, SNB-75, U251, PC-3, A498, CAKI-1, SN12C, NCI-H522, 2 days",especially sensitive
